Experimental data reported in patent US20130129675A1, “INTERFERON THERAPIES IN COMBINATION WITH BLOCKADE OF STAT3 ACTIVATION” (BOARD OF REGENTS, THE UNIVERSITY OF TEXAS SYSTEM, priority 2009, published 2013).

Tests used:
B16 target cells = assay: Ex vivo splenocyte cytotoxicity assay; format: cell-based, mice; conditions: 48 h
From the text: Spleens from 4- to 6-week-old female mice in the above treatment schema were harvested and disassociated into a single cell suspension. After erythrocytes were lysed with 1×RBC lysis buffer (eBioscience), splenocytes were washed once with RPMI 1640 medium and were ready as effector cells for the standard cytotoxicity assay. Wang L, Yi T, Kortylewski M, Pardoll D M, Zeng D, Yu H, IL-17 Can Promote Tumor Growth Through An IL-6-Stat3 Signaling Pathway, J Exp Med 2009; 206:1457-64. For target cells, B16 cells in RPMI 1640 medium were cultured for 3 days, trypsinized, pelleted, and resuspended in FACS buffer at room temperature to achieve a concentration of 10^6 cells/ml. Carboxy-fluorescein diacetate succinimidyl ester (CFSE) stock solution (CellTrace CFSE Cell Proliferation Kit; Invitrogen, Eugene, Oreg.) was added to achieve a final concentration of 4 μM. The mixture was incubated at 37° C. for 10 minutes, and then the staining reaction was quenched by the addition of five volumes of ice-cold PBS for 5 minutes. The B16 cells were washed three times in RPMI 1640 medium and plated for the cytotoxicity assay. The ratios of splenocyte effector cells to B16 target cells were 30:1 and 100:1. After 48 h of incubation, the CFSE-labeled B16 melanoma cells were removed from the plates with trypsin-EDTA (0.05%) and analyzed by FACS. The B16 cells were stained with propidium iodide (PI; BD Biosciences) to distinguish viable cells from nonviable cells. B16 cells that were stained with CFSE and PI were considered nonviable. Flow cytometric acquisition of the B16 target cells was performed with a FACSCalibur flow cytometer (BD Biosciences), and data analysis was performed using FlowJo software (TreeStar, Ashland, Oreg.).
To ascertain the underlying in vivo immunological mechanism that is responsible for the therapeutic efficacy, we examined splenocytes cytotoxic responses directed against B16 melanoma cells. Splenocytes from control mice and mice treated with WP1193, IFN-α, or IFN-α+WP1193 were isolated and co-cultured with CFSE-labeled B16 target cells for 48 hours to assess splenocyte cytotoxicity against B16 cells. […] Furthermore, in mice treated with both IFN-α and WP1193, there was additive enhanced cytotoxic clearance of the B16 target cells compared with mice that were treated with either WP1193 or IFN-α alone (P<0.01;).

[1] = test system: intracerebral B16 melanoma; assay: Survival of mice with established intracerebral B16 melanoma; format: in vivo, C57BL/6J mice; conditions: for median overall survival: WP1193 30 mg/kg oral gavage (sub-therapeutic) from day 3, IFN-α plasmid i.v. day 5, control 17 days; for increase in median survival: versus control (17 days)
From the text: For the in vivo experiments, we used 4- to 6-week-old female C57BL/6J mice maintained in the M. D. Anderson Cancer Center Isolation Facility in accordance with Laboratory Animal Resources Commission standards and conducted according to an Institutional Animal Care and Use Committee-approved protocol, 08-06-11831. A mouse was euthanized when it became unable to reach food or water. To induce intracerebral tumors in C57BL/6J mice, B16 cells were collected in logarithmic growth phase, washed twice with PBS, mixed with an equal volume of 10% methyl cellulose and RPMI 1640 medium and loaded into a 250-μl syringe (Hamilton, Reno, Nev.) with an attached 25-gauge needle. The needle was positioned 2 mm to the right of bregma and 4 mm below the surface of the skull at the coronal suture using a stereotactic frame (Kopf Instruments, Tujunga, Calif.). The intracerebral tumorigenic dose for the B16 cells was 5×10^2 in a total volume of 5 μl.
pORF.IFN-α (IFN-α) plasmid was obtained from Invivogen (29). Hydrodynamic gene transfer (HGT) consisted of a single intravenous (i.v.) injection of 3 μg endotoxin-free pORF plasmid encoding murine IFN-α or pORF control plasmid DNA (InvivoGen, San Diego, Calif.) in 2 ml of saline as previously described. Liu F, Song Y, Liu D, Hydrodynamics-Based Transfection In Animals By Systemic Administration Of Plasmid DNA, Gene Therapy 1999; 6:1258-66. […] Sikora A G, Jaffarzad N, Hailemichael Y, Gelbard A, Stonier S W, Schluns K S, Frasca L, Lou Y, Liu C, Andersson H A, Hwu P, Overwijk W W, IFN-A Enhances Peptide Vaccine-Induced CD8+ T Cell Numbers, Effector Function, And Antitumor Activity, J Immunol 2009, 182:7398-407. The STAT3 inhibitor, WP1193, was synthesized and supplied by Dr. Priebe (M. D. Anderson). WP1193, a third-generation analogue inhibitor of the p-STAT3 pathway, was dissolved in a mixture of 20 parts dimethylsulfoxide (DMSO) to 80 parts polyethylene glycol (PEG) 300 (Sigma-Aldrich, St Louis, Mo.) at titered concentrations and delivered in a final volume of 100 μL. Prior to use, WP1193 was stored as a lyophilized powder at 4° C.
Treatment for the established intracerebral tumors was with WP1193 (starting on day 3) and/or IFN-α (starting on day 5) after B16 tumor cell challenge. Mice were injected intravenously (i.v.) with 2 ml (3 μg) of IFN-α plasmid in saline once. Mice were treated with a sub-therapeutic dose of 30 mg/kg of WP1193 by oral gavage (o.g.) in a vehicle of DMSO/PEG300 (20 parts/80 parts) on […], on a […]. schedule (5 days on, 2 days off). When mice were treated in the therapeutic range of 40 mg/kg, >80% of animals survived long-term (more than 70 days) and synergy with IFN-α could not be assessed. Ten mice per experimental group were used, including treatment with the DMSO/PEG300 vehicle alone in the control group.
Kaplan-Meier product-limit survival probability estimates of overall survival were calculated and log-rank tests were performed to compare overall survival between treatment groups and the control arm. Kaplan E L, Meier P., Nonparametric Estimation From Incomplete Observations, J Am Stat Assoc 1958; 53:457-81; Mantel N., Evaluation Of Survival Data And Two New Rank Order Statistics Arising In Its Consideration, Cancer Chemother Rep 1966; 50:163-70 Ex-vivo or in vitro data are presented as means±standard errors (SEs) of three repeated experiments. Student's t test was performed. A P value below 0.05 was considered statistically significant. […]

[2] = 30:1 ratio of splenocytes to B16 Tumor Cells, control 25.2
[3] = 100:1 ratio of splenocytes to B16 Tumor Cells, control 38.1

Row | Compound | % of B16 Killimg (B16 target cells; [2]) | % of B16 Killimg (B16 target cells; [3]) | median overall survival [1] | increase in median survival [1] | animals surviving long-term (more than 70 days) ([1]; therapeutic range of 40 mg/kg)
1 | IFN-α | 40.1% | 51.6% | 27.5 days | 62% | 
2 | N#C/C(=C\c1cccc(Br)n1)C(=O)N[C@H](c1ccccc1)C1CC1 [WP1193, (S,E)-3-(6-bromopyridin-2-yl)-2-cyano-N-(cyclopropyl(phenyl)methyl)acrylamide] | 29.8% | 42.0% | 18.5 days | 9% | > 80%
